Source: patent US5747235A, “Silver halide light sensitive emulsion layer having enhanced photographic sensitivity” (Eastman Kodak Company, priority 1996, dated 1998)
Structures can show the parent of a compound that is named as a salt.

Assays:
[1] = Example 3: photographic speed and fog, 365 nm exposure, emulsion T-2; set-up: Fog: unit not given here; conditions: for effect on dye desensitization: red dyed emulsion (D-II), 365 nm
Protocol: (§1) For photographic evaluation, each of the coating strips was exposed for 0.1 sec to a 365 nm emission line of a Hg lamp filtered through a Kodak Wratten filter number 18A and a step wedge ranging in density from 0 to 4 density units in 0.2 density steps. The exposed film strips were developed for 6 min in Kodak Rapid X-ray Developer (KRX). S365, relative sensitivity at 365 nm, was evaluated at a density of 0.2 units above fog.
This emulsion was precipitated using deionized gelatin. […] The chemically sensitized emulsion was then used to prepare coatings containing the fragmentable two-electron donor compounds. All of the experimental coating variations in Table III contained the hydroxybenzene 2,4-disulfocatechol (HB3) at a concentration of 13 mmole/ mole Ag, added to the melt before the addition of any further addenda. Where present, the blue sensitizing dye D-I or the red sensitizing dye D-II were added from methanol solution to the emulsion at 40° C. after the chemical sensitization and disulfocatechol addition.

[2] = Example 10: photographic sensitivity and fog, color format, blue sensitized emulsion T-2; conditions: for Photographic Sensitivity SWR2B: control=100
Protocol: The hydroxybenzene, 2,4-disulfocatechcol (HB3) at a concentration of 13×10^-3 mole/mole Ag was added to the emulsion melt before the start of the chemical sensitization procedure. […] The fragmentable two-electron donors S-3, S-9, S-6, or S-8 were then added to the emulsion melt.
The melts were prepared for coating by adding additional water, deionized gelatin and coating surfactants. Coatings were prepared by combining the emulsion melts with a melt containing deionized gelatin and an aqueous dispersion of the cyan-forming color coupler CC-1 and coating the resulting mixture on acetate support. […] The structure of the color coupler CC-1 is given below: [drawing 120]
(§2) For photographic evaluation, each of the coating strips was exposed for 0.01 sec to a 3000K color temperature tungsten lamp filtered to give an effective color temperature of 5500K and further filtered through a Kodak Wratten filter number 2B, and a step wedge ranging in density from 0 to 4 density units in 0.20 density steps. This exposure gives light absorbed mainly by the blue sensitizing dye. The exposed film strips were developed for 31/4 minutes in Kodak C-41 color developer. SWR2B, relative sensitivity for this filtered exposure, was evaluated at a cyan density of 0.15 units above fog.

[3] = Example 9: photographic speed and fog, 365 nm exposure, red dyed emulsion T-2; conditions: for Fog / S365: dye II 0.86 x10^-3; for S365: undyed control=100, dyed control 62; for 365 nm sensitivity of dyed emulsion: dye D-II
Protocol: as §1
An AgBrI tabular silver halide emulsion (Emulsion T-2) was prepared containing 4.05% total I distributed such that the central portion of the emulsion grains contained 1.5% I and the perimeter area contained substantially higher I, as described by Chang et. al., U.S. Pat. No. 5,314,793. […] This emulsion was precipitated using deionized gelatin. The emulsion was sulfur sensitized by adding 8.5×10^-6 mole 1,3-dicarboxymethyl-1,3-dimethyl-2-thiourea /mole Ag at 40° C.; the temperature was then raised to 60° C. at a rate of 5° C./3 min and the emulsions held for 20 min before cooling to 40° C. The chemically sensitized emulsion was then used to prepare coatings containing the fragmentable two-electron donor compounds. All of the experimental coating variations in Table III contained the hydroxybenzene 2,4-disulfocatechol (HB3) at a concentration of 13 mmole/ mole Ag, added to the melt before the addition of any further addenda. Where present, the blue sensitizing dye D-I or the red sensitizing dye D-II were added from methanol solution to the emulsion at 40° C. after the chemical sensitization and disulfocatechol addition. The fragmentable two-electron donor compounds were added to the emulsion at 40° C. and the coatings were prepared and tested as described in Example 1, except that the additional gelatin used to prepare the coatings described in Table III was deionized gelatin.
The sulfur sensitized AgBrI tabular emulsion T-2 as described in Example 3 was used to prepare coatings of the fragmentable two-electron donors S-15, S-14, S-13, and S-11, as described in Table IX. All of the experimental coating variations in Table IX contained the hydroxybenzene, 2,4-disulfocatechcol (HB3) at a concentration of 13 mmole/mole Ag, added to the melt before any further addenda. Where present, the red sensitizing dye D-II was added from methanol solution to the emulsion at 40° C. after the chemical sensitization and disulfocatechol addition. The fragmentable two-electron donor compounds were then added to the emulsion and coatings prepared and tested as described in Example I, except that the additional gelatin used to prepare the coatings described in Table IX was deionized gelatin.

[4] = Example 11: photographic sensitivity and fog, color format, blue sensitized emulsion T-2; conditions: for Photographic Sensitivity SWR2B: control=100
Protocol: The AgBrI tabular silver halide emulsion T-2 from Example 3 was optimally chemically and spectrally sensitized by adding NaSCN, 1.07 mmole of the blue sensitizing dye D-I per mole of silver, Na3 Au(S2 O3)2 ·2H2 O, Na2 S2 O3 ·5H2 O, and a benzothiazolium finish modifier and then subjecting the emulsion to a heat cycle to 65° C. The hydroxybenzene, 2,4-disulfocatechcol (HB3) at a concentration of 13×10^-3 mole/mole Ag was added to the emulsion melt before the start of the chemical sensitization procedure. This chemically sensitized emulsion was then used to prepare the experimental coating variations given in Table X. For all the variations in Table X, the antifoggant and stabilizer tetraazaindene (TAI) was added to the emulsion melt in an amount of 1.75 g/mole Ag before any further addenda. The fragmentable two-electron donors S-3, S-9, S-6, or S-8 were then added to the emulsion melt.
The melts were prepared for coating by adding additional water, deionized gelatin and coating surfactants. Coatings were prepared by combining the emulsion melts with a melt containing deionized gelatin and an aqueous dispersion of the cyan-forming color coupler CC-1 and coating the resulting mixture on acetate support. The final coatings contained Ag at 0.81 g/m^2, coupler at 1.61 g/m^2, and gelatin at 3.23 g/m^2. The coatings were overcoated with a protective layer containing gelatin at 1.08 g/m^2, coating surfactants, and a bisvinylsulfonylmethyl ether as a gelatin hardening agent. The structure of the color coupler CC-1 is given below: [drawing 120]
as §2
The AgBrI tabular emulsion T-2 as described in Example 3 was sensitized as described in Example 10 except that the hydroxybenzene HB3 was added at the completion of the chemical sensitization procedure. For all the variations in Table XI, the antifoggant and stabilizer tetraazaindene (TAI) was added to the emulsion melt in an amount of 1.75 g/mole Ag before any further addenda. The fragmentable two-electron donors S-12, S-14, S-13, or S-11 were then added to the emulsion melt. The melts were then coated and tested as described in Example 10.

[5] = 0.0022 x10^-3 mole/mole Ag, dye II 0.86 x10^-3
[6] = 0.0022 x10^-3 mole/mole Ag, dye II 0.86 x10^-3, dyed control 68
[7] = 0.007 x10^-3 mole/mole Ag, dye II 0.86 x10^-3
[8] = 0.022 x10^-3 mole/mole Ag, dye I 0.91 x10^-3
[9] = 0.022 x10^-3 mole/mole Ag, dye I 0.91 x10^-3, dyed control 105
[10] = 0.007 x10^-3 mole/mole Ag, dye II 0.86 x10^-3, dyed control 68
[11] = 0.07 x10^-3 mole/mole Ag, dye I 0.91 x10^-3
[12] = 0.07 x10^-3 mole/mole Ag, dye I 0.91 x10^-3, dyed control 105
[13] = 0.07 x10^-3 mole/mole Ag, no dye
[14] = 0.07 x10^-3 mole/mole Ag, no dye, control=100

Structure (SMILES) | Fog [1, 5] | S365 [1, 6] | Fog [1, 7] | Fog [1, 8] | S365 [1, 9] | effect on dye desensitization [1] | Fog ([2]; 0.022 x10^-3 mol/mol Ag) | Photographic Sensitivity SWR2B ([2]; 0.022 x10^-3 mol/mol Ag) | Fog ([2]; 0.07 x10^-3 mol/mol Ag) | Photographic Sensitivity SWR2B ([2]; 0.07 x10^-3 mol/mol Ag) | Fog ([3]; 0.007 x10^-3 mol/mol Ag) | S365 ([3]; 0.007 x10^-3 mol/mol Ag) | Fog ([3]; 0.022 x10^-3 mol/mol Ag) | S365 ([3]; 0.022 x10^-3 mol/mol Ag) | 365 nm sensitivity of dyed emulsion [3] | Fog ([4]; 0.22 x10^-3 mol/molAg) | Photographic Sensitivity SWR2B ([4]; 0.22 x10^-3 mol/molAg) | Fog ([4]; 0.44 x10^-3 mol/molAg) | Photographic Sensitivity SWR2B ([4]; 0.44 x10^-3 mol/molAg) | other results
CCSCCN(c1ccc(C)cc1)[C@@H](C)C(=O)[O-].[Na+] [Compound S-3, N-(4-Methylphenyl)-N-(2-ethylthio-ethyl)alanine sodium salt] | 0.28 | 120 | 0.75 | 0.16 | 132 | effective in ameliorating dye desensitization | 0.14 | 97 | 0.19 | 110 | – | – | – | – | – | – | – | – | – | Fog ([1]; 0.022 x10^-3 mole/mole Ag, no dye): 0.13; S365 ([1]; 0.022 x10^-3 mole/mole Ag, no dye, control=100): 151
CCSCCN(c1ccc(C)cc1)C(CC(=O)O)C(=O)O (stereo not shown) [Compound S-8] | 0.11 | 97 | 0.15 | 0.07 | 118 | effective in ameliorating dye desensitization | 0.14 | 107 | 0.23 | 110 | – | – | – | – | – | – | – | – | – | S365 [1, 10]: 112; Fog [1, 11]: 0.12; S365 [1, 12]: 120; Fog [1, 13]: 0.13; S365 [1, 14]: 162
CCSCCN(c1ccccc1)C(C)C(=O)O (stereo not shown) [Compound S-9, N-(Phenyl)-N-(2-thioethyl-ethyl)alanine sodium salt] | 0.24 | 115 | 0.44 | 0.08 | 159 | effective in ameliorating dye desensitization | 0.16 | 162 | 0.19 | 182 | – | – | – | – | – | – | – | – | – | S365 [1, 10]: 107; Fog [1, 11]: 0.13; S365 [1, 12]: 162; Fog [1, 13]: 0.13; S365 [1, 14]: 166
CCSCCN(c1ccc(C(=O)O)cc1)C(C)C(=O)O (stereo not shown) [Compound S-11] | – | – | – | – | – | – | – | – | – | – | 0.12 | 87 | 0.13 | 100 | restored to that of the undyed emulsion | 0.10 | 166 | 0.09 | 178 | –
CCSCCN(c1ccc(Cl)cc1)C(C)C(=O)O (stereo not shown) [Compound S-12, N-(4-Chlorophenyl)-N-(2-thioethyl-ethyl)alanine sodium salt] | – | – | – | – | – | – | – | – | – | – | – | – | – | – | – | 0.11 | 191 | 0.16 | 204 | –
CCSCCN(c1cccc(C(N)=O)c1)C(C)C(=O)O (stereo not shown) [Compound S-13] | – | – | – | – | – | – | – | – | – | – | 0.13 | 95 | 0.20 | 102 | restored to that of the undyed emulsion | 0.10 | 204 | 0.16 | 209 | –
CCSCCN(c1ccccc1)C(CC(=O)O)C(=O)O (stereo not shown) [Compound S-14] | – | – | – | – | – | – | – | – | – | – | 0.11 | 89 | 0.14 | 97 | restored to that of the undyed emulsion | 0.09 | 170 | 0.09 | 178 | –
